Drawing on ChEMBL document CHEMBL1126433 (Bioorg Med Chem Lett, 1992), this text covers IC50 and inhibition for eight compounds.

Test [1] addresses T1, Polyunsaturated fatty acid 5-lipoxygenase (Rattus norvegicus, UniProt P12527).
T1 sequence (P12527 whole entry): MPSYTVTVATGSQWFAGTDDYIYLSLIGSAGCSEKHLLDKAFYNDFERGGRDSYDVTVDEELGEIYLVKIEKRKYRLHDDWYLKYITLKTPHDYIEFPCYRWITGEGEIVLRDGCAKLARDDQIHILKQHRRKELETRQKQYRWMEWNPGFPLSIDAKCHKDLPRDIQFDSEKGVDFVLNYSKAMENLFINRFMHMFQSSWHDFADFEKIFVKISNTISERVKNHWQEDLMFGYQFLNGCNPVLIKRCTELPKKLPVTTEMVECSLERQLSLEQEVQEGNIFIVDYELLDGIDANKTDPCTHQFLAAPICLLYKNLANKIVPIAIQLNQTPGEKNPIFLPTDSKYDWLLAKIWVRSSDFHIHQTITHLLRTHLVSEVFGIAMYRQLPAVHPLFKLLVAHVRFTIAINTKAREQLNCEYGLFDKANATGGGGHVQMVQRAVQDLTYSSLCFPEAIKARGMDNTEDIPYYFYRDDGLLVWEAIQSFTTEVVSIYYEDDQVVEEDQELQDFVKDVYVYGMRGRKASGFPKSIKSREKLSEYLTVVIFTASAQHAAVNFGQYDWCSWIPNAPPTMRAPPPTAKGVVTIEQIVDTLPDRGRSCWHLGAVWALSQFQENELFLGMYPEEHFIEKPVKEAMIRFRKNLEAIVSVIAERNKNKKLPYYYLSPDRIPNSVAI
The test can be described thus: Compound was evaluated for its inhibitory activity against 5-LO (5-lipoxygenase) in intact RBL-1 cell line assay. It counts as cell-based.

Test [2] deals with T2, Cyclooxygenase (Rattus norvegicus) (UniProt P35355+Q63921). The test can be described thus: Compound was evaluated for its inhibitory activity against CO(cyclooxygenase) at 10 uM concentration in intact RBL-1 cell line assay; Less than 5% inhibition at 10 uM reported as not active. It is filed as cell-based.
In test [3] the target is T3, Polyunsaturated fatty acid 5-lipoxygenase (Rattus norvegicus) (UniProt P12527).
T3 sequence (whole entry): T1 sequence (P12527 whole entry)
Kind of test: Compound was evaluated for its inhibitory activity against 5-LO (5-lipoxygenase) at 10 uM concentration in intact RBL-1 cell line assay. It is filed as cell-based.

In test [4] the target is T4, Cyclooxygenase (Rattus norvegicus, UniProt P35355+Q63921).
T4 sequence (P35355 whole entry): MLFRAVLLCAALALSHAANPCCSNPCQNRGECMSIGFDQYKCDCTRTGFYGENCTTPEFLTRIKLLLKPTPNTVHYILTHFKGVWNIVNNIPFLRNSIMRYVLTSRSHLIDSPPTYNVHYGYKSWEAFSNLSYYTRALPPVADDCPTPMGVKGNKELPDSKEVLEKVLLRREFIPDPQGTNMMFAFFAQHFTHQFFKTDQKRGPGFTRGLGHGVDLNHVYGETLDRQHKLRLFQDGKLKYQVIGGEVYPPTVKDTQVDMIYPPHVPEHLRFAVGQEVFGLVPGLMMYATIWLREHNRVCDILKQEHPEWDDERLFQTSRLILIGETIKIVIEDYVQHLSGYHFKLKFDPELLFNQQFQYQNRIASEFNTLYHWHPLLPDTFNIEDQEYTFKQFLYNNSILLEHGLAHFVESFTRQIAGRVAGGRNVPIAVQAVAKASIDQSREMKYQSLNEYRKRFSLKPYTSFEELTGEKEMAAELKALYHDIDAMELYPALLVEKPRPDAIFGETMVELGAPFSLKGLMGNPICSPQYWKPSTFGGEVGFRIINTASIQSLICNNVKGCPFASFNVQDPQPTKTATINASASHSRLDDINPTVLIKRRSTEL
T4 sequence (Q63921 whole entry): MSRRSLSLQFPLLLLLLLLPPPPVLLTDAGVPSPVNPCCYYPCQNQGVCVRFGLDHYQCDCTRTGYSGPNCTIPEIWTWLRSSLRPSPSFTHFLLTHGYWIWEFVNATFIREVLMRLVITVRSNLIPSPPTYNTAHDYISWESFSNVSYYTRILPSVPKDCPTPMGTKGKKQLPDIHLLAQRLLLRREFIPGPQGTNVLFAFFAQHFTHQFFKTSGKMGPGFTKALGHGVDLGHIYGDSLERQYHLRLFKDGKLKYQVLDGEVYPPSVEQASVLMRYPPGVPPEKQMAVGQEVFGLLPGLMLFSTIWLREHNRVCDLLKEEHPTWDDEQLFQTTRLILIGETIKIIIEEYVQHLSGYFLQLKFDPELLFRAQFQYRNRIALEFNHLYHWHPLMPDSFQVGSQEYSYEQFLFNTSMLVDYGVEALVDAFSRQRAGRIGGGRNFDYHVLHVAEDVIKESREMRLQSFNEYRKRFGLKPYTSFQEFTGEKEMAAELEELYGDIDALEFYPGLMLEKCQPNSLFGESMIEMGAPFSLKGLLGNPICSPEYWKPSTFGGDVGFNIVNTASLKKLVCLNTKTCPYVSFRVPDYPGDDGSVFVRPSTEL
Kind of test: Compound was evaluated for its inhibitory activity against CO(cyclooxygenase) in intact RBL-1 cell line assay. It counts as cell-based.

In test [5] the target is T4, Cyclooxygenase. Kind of test: Compound was evaluated for its inhibitory activity against CO(cyclooxygenase). It counts as protein assay.
Test [6] has as its target T2, Cyclooxygenase (Rattus norvegicus). The test can be described thus: Compound was evaluated for its inhibitory activity against CO(cyclooxygenase) at 10 uM concentration in intact RBL-1 cell line assay. It counts as cell-based.
Test [7] addresses T3, Polyunsaturated fatty acid 5-lipoxygenase (Rattus norvegicus). Kind of test: Compound was evaluated for its inhibitory activity against 5-LO (5-lipoxygenase) at 10 uM concentration in intact RBL-1 cell line assay; Less than 5% inhibition at 10 uM reported as not active. It is filed as cell-based.

Activity calls are given as the source filed them. The rule behind the calls is not given here.

As for `COc1ccc2c(c1)c(CC(=O)O)c(C)n2C(=O)c1ccc(Cl)cc1` [INDOMETHACIN], the IC50 (in general, the concentration that inhibits the measured activity by half) in test [1] was above 100000 nM.
Turning to `Cc1ccc(Cl)c(Nc2ccccc2/C=C2\SC(=O)NC2=O)c1Cl`, the inhibition – broadly, the share of the control response that was lost under treatment – in test [2] is “inactive”. The compound further showed an inhibition in test [3] of 30%.
Take `COc1ccc2c(c1)c(/C=C1/SC(=S)NC1=O)c(C)n2C(=O)c1ccc(Cl)cc1`: the values for the IC50 (in test [1]; at Cyclooxygenase [4]) were 1400 nM and 2000 nM, respectively.
`Cc1ccc(Cl)c(Nc2ccccc2/C=C2\SC(=S)NC2=O)c1Cl` yielded a concentration for half-maximal inhibition (IC50) at Cyclooxygenase [5] of 6000 nM.
For `Cc1ccc(Cl)c(Nc2ccccc2/C=C2\SC(NC#N)=NC2=O)c1Cl`, the figures for the half-maximal inhibitory concentration (IC50) (in test [1]; on Cyclooxygenase [4]) were 1500 nM and 10200 nM, respectively.
As for `Cc1ccc(Cl)c(Nc2ccccc2/C=C2\SC(N)=NC2=O)c1Cl`, the values for the inhibition in test [6] and in test [3] were 20% and 35%, respectively.
On to `Cc1ccc(Cl)c(Nc2ccccc2/C=C2\SC(=S)N(CC(=O)O)C2=O)c1Cl`, for which the inhibition in test [6] amounted to 33%.
Regarding `Cc1ccc(Cl)c(Nc2ccccc2/C=C2\SC(=S)N(C)C2=O)c1Cl`, the inhibition result in test [7] was “inactive”. In test [6], this compound displayed an inhibition of 32%.
